According to patent US10487093B2, “Heterocyclic compounds, in particular 2-oxo-4,4,5,5,6,6,7,7-octahydrobenzoxazole derivatives, and their use as antibacterial compounds” (priority 2016, dated 2019):
≈ marks a conversion by molar mass, not a printed value. Like-named read-outs stand apart in the source and are kept apart here.

Key:
[1] = tested on: Enterobacter cloacae NCTC 13406; experiment: MIC, broth microdilution (CLSI) versus planktonic bacteria; format: cell-based
[2] = tested on: Streptococcus pneumoniae ATCC 49619; experiment: as above; format: cell-based
[3] = tested on: Haemophilus influenzae ATCC 49247; experiment: as above; format: cell-based
[4] = tested on: Acinetobacter baumannii ATCC 19606; experiment: as above; format: cell-based; details: ATCC19606; Acinetobacter baumannii ATCC 19606; 16-20 h; mode of three independent experiments; read-out: MIC, Ab ATCC 19606
[5] = tested on: Escherichia coli ATCC 25922; experiment: as above; format: cell-based
[6] = tested on: Pseudomonas aeruginosa ATCC 27853; experiment: as above; format: cell-based
[7] = tested on: Staphylococcus aureus ATCC 29213; experiment: as above; format: cell-based
[8] = tested on: Acinetobacter baumannii NCTC 13420; experiment: as above; format: cell-based
[9] = tested on: human hepatic cell line (HepG2 ATCC HB-8065); experiment: Human cell viability assay (CellTiter-Glo); details: Homo sapiens, HepG2, 24 h, read-out: IC50 (μg/mL) HepG2
[10] = NCTC13406, Enterobacter cloacae NCTC 13406, 16-20 h, mode of three independent experiments, read-out: MIC, Ecl NCTC 13406
[11] = ATCC49619, Streptococcus pneumoniae ATCC 49619, 16-20 h, mode of three independent experiments, read-out: MIC, Sp ATCC 49619
[12] = ATCC49247, Haemophilus influenzae ATCC 49247, 16-20 h, mode of three independent experiments, read-out: MIC, Hi ATCC 49247
[13] = ATCC25922, Escherichia coli ATCC 25922, 16-20 h, mode of three independent experiments, read-out: MIC, Ec ATCC 25922
[14] = ATCC27853, Pseudomonas aeruginosa ATCC 27853, 16-20 h, mode of three independent experiments, read-out: MIC, Pa ATCC 27853
[15] = ATCC29213, Staphylococcus aureus ATCC 29213, 16-20 h, mode of three independent experiments, read-out: MIC, Sa ATCC 29213
[16] = NCTC13420, Acinetobacter baumannii NCTC 13420, 16-20 h, mode of three independent experiments, read-out: MIC, Ab NCTC 13420

SMILES | MIC [1, 10] [mg/L] | MIC [2, 11] [mg/L] | MIC [3, 12] [mg/L] | MIC [4] [mg/L] | MIC [5, 13] [mg/L] | MIC [6, 14] [mg/L] | MIC [7, 15] [mg/L] | MIC [8, 16] [mg/L] | IC50 [9] [µg/mL] | MIC ([1]; Enterobacter cloacae, NCTC13406, read-out: MIC, Ecl NCTC 13406) [mg/L] | MIC ([2]; Streptococcus pneumoniae, ATCC49619, read-out: MIC, Sp ATCC 49619) [mg/L] | MIC ([3]; Haemophilus influenzae, ATCC49247, read-out: MIC, Hi ATCC 49247) [mg/L] | MIC ([5]; Escherichia coli, ATCC25922, read-out: MIC, Ec ATCC 25922) [mg/L] | MIC ([6]; Pseudomonas aeruginosa, ATCC27853, read-out: MIC, Pa ATCC 27853) [mg/L] | MIC ([7]; Staphylococcus aureus, ATCC29213, read-out: MIC, Sa ATCC 29213) [mg/L] | MIC ([8]; Acinetobacter baumannii, NCTC13420, read-out: MIC, Ab NCTC 13420) [mg/L]
COc1ccc2ccc(=O)n(CCCN[C@@H]3CC[C@@H]4[C@@H](C3)OC(=O)N4c3ncc4c(n3)NC(=O)CO4)c2n1 [Compound 79, 1-(3-{[(3aR,6R,7aR)-2-oxo-3-{7-oxo-6H,7H,8H-pyrimido[5,4-b][1,4]oxazin-2-yl}-octahydro-1,3-benzoxazol-6-yl]amino}propyl)-7-methoxy-1,2-dihydro-1,8-naphthyridin-2-one] | 1 to 10 (≈ 1.92 to 19.2 µM) | < 1 | < 1 | 1 to 10 (≈ 1.92 to 19.2 µM) | < 1 | 1 to 10 (≈ 1.92 to 19.2 µM) | < 1 | < 1 | 10 to 100 (≈ 19.2 to 192 µM) |  |  |  |  |  |  | 
COc1cnc2ccc(=O)n(CCN(C)[C@H]3CC[C@H]4[C@@H](C3)OC(=O)N4c3ccc4c(n3)NC(=O)CO4)c2c1 [Compound 51, 1-(2-{[(3aS,6S,7aR)-2-oxo-3-{3-oxo-2H,3H,4H-pyrido[3,2-b][1,4]oxazin-6-yl}-octahydro-1,3-benzoxazol-6-yl](methyl)amino}ethyl)-7-methoxy-1,2-dihydro-1,5-naphthyridin-2-one] | 1 to 10 (≈ 1.92 to 19.2 µM) | < 1 | < 1 |  | 1 to 10 (≈ 1.92 to 19.2 µM) | 1 to 10 (≈ 1.92 to 19.2 µM) | < 1 | 1 to 10 (≈ 1.92 to 19.2 µM) | > 100 |  |  |  |  |  |  | 
O=C1COc2ccc(N3C(=O)O[C@@H]4C[C@H](NCCn5c(=O)ccc6ccc(O)cc65)CC[C@H]43)nc2N1 [Compound 20, 1-(2-{[(3aR,6R,7aR)-2-oxo-3-{3-oxo-2H,3H,4H-pyrido[3,2-b][1,4]oxazin-6-yl}-octahydro-1,3-benzoxazol-6-yl]amino}ethyl)-7-hydroxy-1,2-dihydroquinolin-2-one] | 1 to 10 (≈ 2.03 to 20.3 µM) | 10 to 100 (≈ 20.3 to 203 µM) | < 1 |  | < 1 | 1 to 10 (≈ 2.03 to 20.3 µM) | < 1 | 10 to 100 (≈ 20.3 to 203 µM) | > 100 |  |  |  |  |  |  | 
COc1ccc2ccc(=O)n(CCN[C@@H]3CC[C@@H]4[C@@H](C3)OC(=O)N4c3cc4c(nn3)OCCO4)c2n1 [Compound 49, 1-(2-{[(3aR,6R,7aR)-3-{6H,7H-[1,4]dioxino[2,3-c]pyridazin-3-yl}-2-oxo-octahydro-1,3-benzoxazol-6-yl]amino}ethyl)-7-methoxy-1,2-dihydro-1,8-naphthyridin-2-one] | > 100 | < 1 | 10 to 100 (≈ 20.2 to 202 µM) |  | 10 to 100 (≈ 20.2 to 202 µM) | 10 to 100 (≈ 20.2 to 202 µM) | < 1 | 10 to 100 (≈ 20.2 to 202 µM) | > 100 |  |  |  |  |  |  | 
COc1ccc2ccc(=O)n(CCN[C@@H]3CC[C@@H]4[C@H](C3)OC(=O)N4c3ccc4c(n3)NC(=O)CO4)c2n1 [Compound 25, 1-(2-{[(3aR,6R,7aS)-2-oxo-3-{3-oxo-2H,3H,4H-pyrido[3,2-b][1,4]oxazin-6-yl}-octahydro-1,3-benzoxazol-6-yl]amino}ethyl)-7-methoxy-1,2-dihydro-1,8-naphthyridin-2-one] | < 1 | < 1 | < 1 |  | < 1 | 1 to 10 (≈ 1.97 to 19.7 µM) | < 1 | < 1 | 10 to 100 (≈ 19.7 to 197 µM) |  |  |  |  |  |  | 
NCCOc1ccc2ccc(=O)n(CCN[C@H]3CC[C@H]4[C@H](C3)OC(=O)N4c3ccc4c(n3)NC(=O)CO4)c2c1 [Compound 75, (3aS,6S,7aS)—N-{2-[7-(2-azaniumylethoxy)-2-oxo-1,2-dihydroquinolin-1-yl]ethyl}-2-oxo-3-{3-oxo-2H,3H,4H-pyrido[3,2-b][1,4]oxazin-6-yl}-octahydro-1,3-benzoxazol-6-aminium dichloride] |  |  |  |  |  |  |  |  | > 100 | 1 to 10 | < 1 | 10 to 100 | < 1 | 1 to 10 | 1 to 10 | > 100
N#Cc1ccc(-c2cccc(CN[C@H]3CC[C@H]4[C@H](C3)OC(=O)N4c3ccc4c(n3)NC(=O)CO4)c2)nc1 [Compound 71, 6-[3-({[(3aS,6S,7aS)-2-oxo-3-{3-oxo-2H,3H,4H-pyrido[3,2-b][1,4]oxazin-6-yl}-octahydro-1,3-benzoxazol-6-yl]amino}methyl)phenyl]pyridine-3-carbonitrile] | 1 to 10 (≈ 2.01 to 20.1 µM) | 1 to 10 (≈ 2.01 to 20.1 µM) | 1 to 10 (≈ 2.01 to 20.1 µM) |  | < 1 | 10 to 100 (≈ 20.1 to 201 µM) | < 1 | 1 to 10 (≈ 2.01 to 20.1 µM) | 10 to 100 (≈ 20.1 to 201 µM) |  |  |  |  |  |  | 
